From US12173283B2, “Cell model for in vitro evaluation of compound-induced skin sensitization and a constructing method therefor” (South China University Of Technology, priority 2017, dated 2024)

Legend:
[1] = test system: HMOX1 gene (luciferase reporter); experiment: Luciferase expression assay in HMOX1-luciferase knock-in HaCaT monoclone No. 38 (detection of compound sensitization); type: cell-based; conditions: human, HMOX1-luciferase knock-in HaCaT cells, clone No. 38, detection range of concentration 4 μM˜1000 μM, 48 h incubation, compared with negative control group, read-out: expression of luciferase (fold induction), highest reached
Experimental: 4. Analysis of sensitization of compounds after gene knock-in Sensitization of compounds was detected using clone No. 38.
Pre-cultured cells were centrifuged followed by removal of the supernatant, and were resuspended in fresh complete medium. The cell concentration was calculated with a cell counter after dilution for 10 times, and finally was adjusted to 50,000 cells/well. 200 μL of the cell solution was added to each well of a white opaque 96-well plate to ensure that the number of cells per well was substantially the same. The cell was incubated for 24 h at 37° C. in a 5% CO2 incubator. After 24 h, the medium was removed, and a working solution was prepared with 1% FBS medium. […] After 48 h, luciferase expression was measured and cell viability was detected using MTT.
• (1) 48 hours after treatment, the medium containing the reagent was discarded, and the plate was washed twice with PBS; • (2) 100 μL of PBS was added to each well, and then an equal volume of the luciferase substrate was added; • (3) The plate was shaken at 200 rpm for 2 min to fully lyse the cells; • (4) A Tecan Infinite® 200 Pro multi-function microplate reader selecting luminescence, integration 0.5s was used and the reading was recorded. […]

HMOX1 gene target site = experiment: T7EI digestion identification of target site cleavage by sgRNA co-transfected with hCas9 into 293T cells; type: cell-based; conditions: co-transfected with hCas9 plasmid, 72 hours, FIG. 1
Experimental: sgRNA-1, sgRNA-10, sgRNA-13 plasmid and hCas9 plasmid were co-transfected into 293T cells respectively. After 72 hours, the genome was extracted and expanded with the primers in Table 2 on the target site, and the PCR product was identified by T7EI digestion.
The sgRNA-1, sgRNA-10, and sgRNA-13 plasmids were co-transfected into the 293T cells with a H-Cas9 plasmid (using liposome transfection), and the transfection steps were as follows: • (1) The prior medium was discarded, and 2 mL of fresh medium for incubation was added; • (2) 0.5 μg of the sgRNA recombinant plasmid and 0.5 μg of the hCas9 plasmid were dissolved in 100 μL of DMEM (H), 3 μL of a liposome transfection reagent was diluted to 100 μL, and the diluted liposome transfection reagent was added to the diluted plasmid solution. The mixture was gently blew evenly, formulated into a transfection complex, and reacted at room temperature for 15 min; • (3) The transfection complex was dropped into 6 wells, and reacted at 37° C. for 5 h. Then the reaction solution was discarded, and fresh medium was added for cultivation. Genome Extraction Process
PCR amplification of sgRNA-1, sgRNA-10, and sgRNA-13 was carried out using the extracted genome after transfection as a template; PCR amplification was performed using the wild type (WT) as a template and primers with SEQ ID NO: 6-7 as shown in Table 2. […]

Row | Compound | fold induction at 48 h [1] | cleavage of the target site (T7EI digestion) (HMOX1 gene target site)
1 | OCC=Cc1ccccc1 [cinnamyl alcohol] | ≤ 21 | 
2 | Sc1nc2ccccc2s1 [2-mercaptobenzothiazole] | ≤ 30 | 
3 | sgRNA-1: specific sgRNA near the stop codon of HMOX1 gene, sequence TTAACAGGTGGGCGTGCATCAGG, Exon 5 (expressed or natural sequence) |  | can effectively cleave the target site
4 | sgRNA-13: specific sgRNA near the stop codon of HMOX1 gene, sequence GCTTTATGCCATGTGAATGCAGG, Exon 5 (expressed or natural sequence; the letters are possibly those of the target site) |  | can effectively cleave the target site
